Structures can show the parent of a compound that is named as a salt.
Experiments:
Type in all cases: physicochemical
[1] = Particle size distribution by laser diffraction (Malvern Master Sizer 2000); settings: for Particle Size (D10) / Particle Size (D50) / Particle Size (D90): as crystallised from isopropyl alcohol / isopropyl ether
Source text: As used herein, “Particle Size Distribution (PSD)” means the cumulative volume size distribution of equivalent spherical diameters as determined by laser diffraction in Malvern Master Sizer 2000 equipment or its equivalent. “Mean particle size distribution, i.e., (D50)” correspondingly, means the median of said particle size distribution.
The important characteristics of the PSD were the (D90), which is the size, in microns, below which 90% of the particles by volume are found, and the (D50), which is the size, in microns, below which 50% of the particles by volume are found.

[2] = Storage stability (crystalline form, lack of formation of impurities); settings: about 25±2° C., relative humidity about 60±5%
Source text: The term “remains stable”, as defined herein, refers to lack of formation of impurities, while being stored as described hereinbefore.

[3] = Solubility of fesoterodine fumarate in solvents

Compound	Particle Size (D10) [1] [μm]	Particle Size (D50) [1] [μm]	Particle Size (D90) [1] [μm]	also measured
CC(C)C(=O)Oc1ccc(CO)cc1[C@H](CCN(C(C)C)C(C)C)c1ccccc1 [Example 7, Fesoterodine Fumarate]	4.243	14.875	90.272	–
CC(C)C(=O)Oc1ccc(CO)cc1[C@H](CCN(C(C)C)C(C)C)c1ccccc1 [Example 8, Fesoterodine Fumarate]	4.518	22.291	85.415	–
CC(C)C(=O)Oc1ccc(CO)cc1[C@H](CCN(C(C)C)C(C)C)c1ccccc1 [Example 9, Fesoterodine Fumarate]	4.485	31.876	110.282	–
CC(C)C(=O)Oc1ccc(CO)cc1[C@H](CCN(C(C)C)C(C)C)c1ccccc1 [Example 10, Fesoterodine fumarate]	–	–	–	diameter of 90 volume-% of the particles (D90) ([1]; after fine-milling in a grinder for 3-4 minutes): less than 50 microns
CC(C)C(=O)Oc1ccc(CO)cc1[C@H](CCN(C(C)C)C(C)C)c1ccccc1 [Fesoterodine fumarate, 2-[(1R)-3-[bis(1-methylethyl)amino]-1-phenylpropyl]-4-hydroxymethylphenyl isobutyrate]	–	–	–	storage stability ([2]; 3 months): remains in the same crystalline form and stable; storage stability ([2]; at least one month): remains in the same crystalline form and stable; solubility in aqueous solvents ([3]; aqueous solvents): freely soluble; solubility in heptane ([3]; heptane): practically insoluble; solubility in polar non protic solvents ([3]; polar non protic solvents (acetone, DMF, DMSO, acetonitrile)): soluble; solubility in polar protic organic solvents ([3]; some polar protic organic solvents (ethanol, methanol, glacial acetic acid, 2-propanol, propylene glycol)): soluble; solubility in toluene ([3]; toluene): slightly soluble

Reference: US20110171274A1, “Fesoterodine Substantially Free of Dehydroxy Impurity” (ACTAVIS GROUP PTC EHF, priority 2008, published 2011)
